Active and inactive are the calls of the source. The calls are words filed in the database; no cut-off is given here.
Experiments:
[1] = target: T1, Penicillin-binding protein 2x (Streptococcus pneumoniae serotype 4 (strain ATCC BAA-334 / TIGR4)) (UniProt P14677); assay: Residual activity of Streptococcus pneumoniae 5204 PBP2x at 100 uM after 16 hrs
T1 sequence (whole entry): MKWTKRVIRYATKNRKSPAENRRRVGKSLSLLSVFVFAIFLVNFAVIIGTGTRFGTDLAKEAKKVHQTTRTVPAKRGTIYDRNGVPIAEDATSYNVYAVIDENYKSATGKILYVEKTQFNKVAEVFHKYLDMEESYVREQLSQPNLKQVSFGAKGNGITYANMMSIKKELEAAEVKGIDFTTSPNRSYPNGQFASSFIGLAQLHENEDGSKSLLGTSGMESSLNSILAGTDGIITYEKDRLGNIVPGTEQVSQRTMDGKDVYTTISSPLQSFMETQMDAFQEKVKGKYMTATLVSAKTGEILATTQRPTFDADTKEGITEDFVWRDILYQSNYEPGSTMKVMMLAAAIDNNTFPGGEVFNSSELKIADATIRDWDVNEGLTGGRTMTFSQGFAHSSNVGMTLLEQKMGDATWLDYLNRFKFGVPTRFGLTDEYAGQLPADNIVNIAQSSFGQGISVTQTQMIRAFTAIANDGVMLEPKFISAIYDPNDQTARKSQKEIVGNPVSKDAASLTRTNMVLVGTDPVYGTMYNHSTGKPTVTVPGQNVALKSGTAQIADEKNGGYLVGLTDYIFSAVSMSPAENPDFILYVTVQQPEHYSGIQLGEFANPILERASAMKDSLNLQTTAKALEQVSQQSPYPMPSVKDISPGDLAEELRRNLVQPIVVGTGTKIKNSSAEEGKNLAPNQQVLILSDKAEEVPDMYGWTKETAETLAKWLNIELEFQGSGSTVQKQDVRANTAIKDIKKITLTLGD

[2] = target: T2, MecA (Staphylococcus aureus) (UniProt Q7DHH4); assay: Inhibition of methicillin-resistant Staphylococcus aureus ATCC […] PBP2a assessed as residual activity at 100 uM after 16 hrs; conditions: values are per cent of control
T2 sequence (whole entry): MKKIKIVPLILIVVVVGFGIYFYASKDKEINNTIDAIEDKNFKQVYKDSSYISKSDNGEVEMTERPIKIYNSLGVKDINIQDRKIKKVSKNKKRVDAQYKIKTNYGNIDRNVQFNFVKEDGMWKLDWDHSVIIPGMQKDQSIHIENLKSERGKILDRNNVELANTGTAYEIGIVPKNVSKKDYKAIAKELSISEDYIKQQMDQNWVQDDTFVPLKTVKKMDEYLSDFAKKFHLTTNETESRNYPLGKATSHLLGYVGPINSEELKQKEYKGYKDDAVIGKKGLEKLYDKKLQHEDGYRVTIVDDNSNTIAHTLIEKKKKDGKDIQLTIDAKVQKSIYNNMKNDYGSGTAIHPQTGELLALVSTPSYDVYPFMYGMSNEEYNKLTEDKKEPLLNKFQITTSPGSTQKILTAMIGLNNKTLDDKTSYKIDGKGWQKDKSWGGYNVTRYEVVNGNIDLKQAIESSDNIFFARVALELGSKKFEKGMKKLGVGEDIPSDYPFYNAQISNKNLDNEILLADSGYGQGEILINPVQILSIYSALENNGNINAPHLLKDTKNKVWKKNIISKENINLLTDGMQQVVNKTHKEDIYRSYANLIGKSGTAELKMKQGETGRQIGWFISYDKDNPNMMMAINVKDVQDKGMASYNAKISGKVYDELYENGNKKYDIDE

[3] = target: D-alanyl-D-alanine carboxypeptidase (Actinomadura sp. R39) (UniProt P39045); assay: Residual activity of Actinomadura R39 DD-peptidase at 100 uM after 16 hrs
[4] = Chemical stability assessed as hydrolysis half life; assay type: physicochemical
[5] = Inhibition of beta-lactamase TEM1 at 100 uM
[6] = target: Chymotrypsin-like elastase family member 1 (Sus scrofa) (UniProt P00772); assay: Inhibition of pig pancreatic elastase assessed as formation of p-nitroaniline at 100 uM
Enterococcus faecium = assay: Residual activity of Enterococcus faecium PBP5fm at 100 uM after 16 hrs
[7] = target: Chymotrypsin-like elastase family member 1 (Sus scrofa) (UniProt P00772); assay: Reversible inhibition of pig pancreatic elastase at 1 to 100 uM preincubated for 60 mins before addition of N-succinyl-L-alanyl-Lalanyl- L-alanyl-p-nitroanilide by incubation/dilution method
[8] = target: Chymotrypsin-like elastase family member 1 (Sus scrofa) (UniProt P00772); assay: Reversible inhibition of pig pancreatic elastase at 1 to 100 uM preincubated for 40 mins before addition of N-succinyl-L-alanyl-Lalanyl- L-alanyl-p-nitroanilide by incubation/dilution method
[9] = target: Chymotrypsin-like elastase family member 1 (Sus scrofa) (UniProt P00772); assay: Inhibition of pig pancreatic elastase assessed as formation of p-nitroaniline at 1 uM
[10] = target: Chymotrypsin-like elastase family member 1 (Sus scrofa) (UniProt P00772); assay: Reversible inhibition of pig pancreatic elastase at 1 to 100 uM preincubated for 20 mins before addition of N-succinyl-L-alanyl-Lalanyl- L-alanyl-p-nitroanilide by incubation/dilution method

Chymotrypsin-like elastase family member 1 (Sus scrofa), sequence (P00772 whole entry): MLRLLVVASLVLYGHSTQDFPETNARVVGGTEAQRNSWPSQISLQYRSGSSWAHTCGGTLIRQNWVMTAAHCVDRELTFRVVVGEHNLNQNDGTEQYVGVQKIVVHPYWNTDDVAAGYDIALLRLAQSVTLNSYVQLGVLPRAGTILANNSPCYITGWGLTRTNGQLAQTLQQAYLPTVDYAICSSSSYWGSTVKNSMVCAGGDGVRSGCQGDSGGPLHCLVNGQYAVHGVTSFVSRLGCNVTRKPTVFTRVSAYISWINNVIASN

| SMILES | residual activity [1] [%] | residual activity [2] [%] | residual activity [3] [%] | half-life [4] [h] | inhibition [5] | inhibition [6] | residual activity (Enterococcus faecium) [%] | inhibition [7] | inhibition [8] | inhibition [9] | inhibition [10] |
| --- | --- | --- | --- | --- | --- | --- | --- | --- | --- | --- | --- |
| CC(=O)O[C@@H]1[C@@H]2C(=O)N1C(=O)CC/C=C/CCC(=O)O[C@@H]2C | 116 | 86 | 96 | 6 | inactive | inactive | 104 |  |  |  |  |
| CC(=O)O[C@@H]1[C@@H]2C(=O)N1C(=O)CCCCCCC(=O)O[C@@H]2C | 99 | 94 | 113 | 4 | inactive | inactive | 113 |  |  |  |  |
| CC1(C)S[C@@H]2[C@H](NC(=O)Cc3ccccc3)C(=O)N2[C@H]1C(=O)O | < 5 | 13 |  |  |  |  | 10 |  |  |  |  |
| C=CCCC(=O)O[C@H](C)[C@H]1C(=O)N(C(=O)CCC=C)[C@@H]1OC(C)=O | 93 | 66 | 14 | 16 | inactive |  | 84 | Active | Active | Active | Active |

Source: ChEMBL document CHEMBL1158360, “Large ring 1,3-bridged 2-azetidinones: experimental and theoretical studies” (Eur J Med Chem, 2009)
